Test results as given in PMC3828642 (AoB Plants, 2013).
pKi: −log10 of the molar value. Values belong to the compound of their own block, whether it stands above or below them.

Tests used:
Format in all cases: biochemical
[1] = molecular target: T1, 1-aminocyclopropane-1-carboxylic acid oxidase (ACCO1) (Malus domestica, UniProt Q00985); assay: steady-state kinetics (data not shown)
[2] = molecular target: T1, 1-aminocyclopropane-1-carboxylic acid oxidase (ACCO1); assay: steady-state kinetics, ethylene assay by GC, double reciprocal plot; UV/Vis spectrum; set-up: His-Tag fusion protein expressed in E. coli
[3] = molecular target: T1, 1-aminocyclopropane-1-carboxylic acid oxidase (ACCO1); assay: steady-state kinetics, ethylene assay by GC; set-up: purified ACCO fusion protein
[4] = molecular target: T1, 1-aminocyclopropane-1-carboxylic acid oxidase (ACCO1); assay: steady-state kinetics, competitive activation (Ka), double reciprocal plot; set-up: purified recombinant ACCO

T1 sequence (Q00985 whole entry, the tested form may be a part): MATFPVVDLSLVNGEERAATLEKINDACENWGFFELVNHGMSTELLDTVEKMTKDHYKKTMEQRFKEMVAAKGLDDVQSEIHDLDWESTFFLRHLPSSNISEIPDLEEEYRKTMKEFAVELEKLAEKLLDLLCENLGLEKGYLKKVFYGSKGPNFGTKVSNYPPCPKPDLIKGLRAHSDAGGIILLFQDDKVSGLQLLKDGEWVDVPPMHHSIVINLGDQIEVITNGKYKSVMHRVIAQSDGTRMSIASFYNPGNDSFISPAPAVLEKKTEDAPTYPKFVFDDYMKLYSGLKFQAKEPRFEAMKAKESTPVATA

Structure (SMILES): O=C(O)[C@@H](O)[C@H]1OC(=O)[C@H](O)[C@H]1O [D-Saccharic acid 1,4-lactone]
pKi [3]: 3.52

Structure (SMILES): O=c1[nH]c(=O)c2nccnc2[nH]1 [2,4-pteridinediol]
steady-state kinetics, competitive activation (Ka), double reciprocal plot [4]: 2.2 mM

The remaining lines, values ahead:

pKi [1]: 3.03
Structure (SMILES): O=C(O)CC(=O)C(=O)O [Oxaloacetic acid]

pKi [2]: 3.70
Structure (SMILES): Cc1ncc(COP(=O)(O)O)c(C=O)c1O [Pyridoxal-5′-phosphate]

pKi [1]: 4.15
Structure (SMILES): O=C(O)CC(=O)O [Malonic acid]
